Assays:
Assay in all cases: relative viability (nuclei count vs DMSO), 5 days (fraction); higher = more cells survive
KIN001-266 + Phenformin = compound: CCN1CCC(CC1)N2C=C(N=N2)CNC3=CC4=C(C(=CN=C4C(=C3)Cl)C#N)NC5=CC(=C(C=C5)F)Cl [KIN001-266] + N=C(N)NC(=N)NCCc1ccccc1 [Phenformin] (partner 250 µM)
How it was run: (§1)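 Lung cancer cell lines in 1536-well plates got either a single drug or a fixed anchor-drug dose together with five library-drug doses (not always all listed) in √10 steps, by pin tool, on the day after seeding. Nuclei were counted after 5 days, and relative viability is the treated-to-vehicle ratio of nuclei counts. Values are medians of duplicate plates.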

KIN001-266 + Palbociclib = compound: CCN1CCC(CC1)N2C=C(N=N2)CNC3=CC4=C(C(=CN=C4C(=C3)Cl)C#N)NC5=CC(=C(C=C5)F)Cl [KIN001-266] + CC(=O)c1c(C)c2cnc(Nc3ccc(N4CCNCC4)cn3)nc2n(C2CCCC2)c1=O [Palbociclib] (partner 0.5 µM)
How it was run: as §1

KIN001-266 + Pictilisib = compound: CCN1CCC(CC1)N2C=C(N=N2)CNC3=CC4=C(C(=CN=C4C(=C3)Cl)C#N)NC5=CC(=C(C=C5)F)Cl [KIN001-266] + CS(=O)(=O)N1CCN(Cc2cc3nc(-c4cccc5[nH]ncc45)nc(N4CCOCC4)c3s2)CC1 [Pictilisib] (partner 1 µM)
How it was run: as §1

KIN001-266 + Decitabine = compound: CCN1CCC(CC1)N2C=C(N=N2)CNC3=CC4=C(C(=CN=C4C(=C3)Cl)C#N)NC5=CC(=C(C=C5)F)Cl [KIN001-266] + Nc1ncn([C@H]2C[C@H](O)[C@@H](CO)O2)c(=O)n1 [Decitabine] (partner 2 µM)
How it was run: as §1

Cell Line	relative viability (KIN001-266 + Phenformin; first compound 0.08 µM)	relative viability (KIN001-266 + Phenformin; first compound 0.253 µM)	relative viability (KIN001-266 + Phenformin; first compound 0.8 µM)	relative viability (KIN001-266 + Phenformin; first compound 2.53 µM)	relative viability (KIN001-266 + Phenformin; first compound 8 µM)	relative viability (KIN001-266 + Palbociclib; first compound 0.08 µM)	relative viability (KIN001-266 + Palbociclib; first compound 0.253 µM)	relative viability (KIN001-266 + Palbociclib; first compound 0.8 µM)	relative viability (KIN001-266 + Palbociclib; first compound 2.53 µM)	relative viability (KIN001-266 + Palbociclib; first compound 8 µM)	relative viability (KIN001-266 + Pictilisib; first compound 0.08 µM)	relative viability (KIN001-266 + Pictilisib; first compound 0.253 µM)	relative viability (KIN001-266 + Pictilisib; first compound 0.8 µM)	relative viability (KIN001-266 + Pictilisib; first compound 2.53 µM)	relative viability (KIN001-266 + Pictilisib; first compound 8 µM)	relative viability (KIN001-266 + Decitabine; first compound 0.08 µM)	relative viability (KIN001-266 + Decitabine; first compound 0.253 µM)	relative viability (KIN001-266 + Decitabine; first compound 0.8 µM)	relative viability (KIN001-266 + Decitabine; first compound 2.53 µM)	relative viability (KIN001-266 + Decitabine; first compound 8 µM)
NCI-H1437	0.346	0.272	0.286	0.291	0.251	0.34	0.33	0.296	0.325	0.278	0.357	0.464	0.413	0.359	0.177	0.564	0.542	0.556	0.504	0.567
NCI-H2170	0.38	0.383	0.377	0.358	0.334	0.375	0.433	0.365	0.407	0.373	0.372	0.392	0.344	0.296	0.3	0.47	0.437	0.457	0.436	0.414
LCLC-103H	0.389	0.28	0.285	0.361	0.332	0.453	0.492	0.466	0.456	0.433	0.618	0.693	0.71	0.676	0.605	0.702	0.742	0.636	0.689	0.706
NCI-H441	0.937	0.837	0.806	0.805	0.641	0.294	0.223	0.217	0.22	0.259	0.559	0.381	0.481	0.459	0.415	0.284	0.205	0.242	0.211	0.279
SK-LU-1	0.561	0.47	0.526	0.439	0.394	0.393	0.381	0.421	0.373	0.339	0.562	0.546	0.637	0.467	0.434	0.718	0.623	0.615	0.552	0.478
BEN	0.262	0.262	0.275	0.259	0.231	0.439	0.495	0.511	0.467	0.507	0.632	0.615	0.589	0.54	0.632	0.975	0.696	0.754	0.623	0.752
LC-2-ad	0.622	0.647	0.629	0.637	0.576	0.535	0.527	0.484	0.499	0.478	0.582	0.336	0.466	0.317	0.543	0.802	0.794	0.676	0.733	0.771
COR-L23	0.439	0.452	0.452	0.455	0.368	0.334	0.28	0.281	0.294	0.22	0.88	0.749	0.697	0.649	0.478	0.487	0.497	0.466	0.464	0.389

From the supplement of paper PMC10307832
